15 molecules from publication PMC3742241, “Novel Hybrid Virtual Screening Protocol Based on Molecular Docking and Structure-Based Pharmacophore for Discovery of Methionyl-tRNA Synthetase Inhibitors as Antibacterial Agents” (International Journal of Molecular Sciences, 2013) can be followed below.

Usually MIC stands for the lowest concentration that inhibits growth of the organism. One may read the IC50 as the concentration that inhibits the measured activity by half. A low value points to greater potency.

Series [1] deals with Methicillin-resistant Staphylococcus aureus ATCC 43300. The series is described as follows: In vitro MIC, broth microdilution, MRSA. The format is cell-based. As to conditions: 5 × 10^5 CFU/mL, 16 h at 37 °C, read-out: MIC, Gram-positive bacteria, MRSA. The protocol: (§1) The 15 final hit compounds were purchased and screened for preliminary in vitro antibacterial activity against our five ATCC-bacterial strain panel (Staphylococcus aureus ATCC 29213, Methicillin-resistant Staphylococcus aureus ATCC 43300, E. coli ATCC 25922, Pseudomonas aeruginosa ATCC 27853 and Klebsiella pneumoniae ATCC 700603) by using the standard broth dilution method. […] All of the 15 final hit compounds were tested against HEK293 cell lines to avoid potential cytotoxicity of normal human cells. […] Further chemical optimization is being performed to better understand the key residues for activity and selectivity.
(§2) MICs were determined using a microdilution method with Muellere Hinton Broth (MHB) for Staphylococci and Lennox Broth (LB) for Enterococci, following the National Committee for Clinical Laboratory Standards (NCCLS) (now called the Clinical Laboratory Standards Institute [CLSI]). The stock solutions of the test compounds were diluted to give a two-fold series, with final chemical concentrations ranging from […].
(Dilution methods test growth across graded concentrations, often in twofold steps.)

The test system of series [2] is Klebsiella pneumoniae ATCC 700603. The series is described as follows: In vitro MIC, broth microdilution, K. pneumoniae. The format is cell-based. The settings on record: ATCC700603, 5 × 10^5 CFU/mL, 16 h at 37 °C, read-out: MIC, Gram-negative bacteria, K. pneumoniae. The protocol:
as §1, §2

Series [3] concerns Escherichia coli ATCC 25922. The series is described as follows: In vitro MIC, broth microdilution, E. coli. The format is cell-based. The settings on record: ATCC25922, 5 × 10^5 CFU/mL, 16 h at 37 °C, read-out: MIC, Gram-negative bacteria, E. coli. The method, then:
as §1, §2

A short description of series [4]: In vitro cytotoxicity assay (MTT). The settings on record: human; HEK293 cells; 48 h; MTT. It is filed as cell-based, Human. The method, then: as §1
(§3) Human Embryonic Kidney 293 cell line (HEK293) was acquired from ATCC. The cells were cultured in DMEM medium (Gibco-BRL, Invitrogen Co. Ltd., Carlsbad, CA, USA) supplemented with 10% (v/v) fetal bovine serum plus 100 μg/mL amikacin. The cells were maintained in a 37 °C humidified incubator with 5% CO2 atmosphere. Analysis of in vitro cytotoxicity was performed in the presence of compounds or blank solvent on cell lines seeded in 96-well plates at the density of 2 × 10^3 cells/well in serum-containing media. After 24 h incubation at 37 °C, the cells were treated with different concentrations of compounds along with a blank solvent. The cells were incubated in these conditions for 48 h. The cell viability was assessed with the 3-(4,5-dimethylthiazol-2-yl)-2,5-diphenyltetrazolium bromide (MTT) method, as previously described.

The test system of series [5] is HEK293 cells. Description: In vitro cytotoxicity assay (MTT). It is filed as cell-based, Human. The protocol: as §1, §3
In series [6] the test system is Staphylococcus aureus ATCC 29213. Description: In vitro MIC, broth microdilution, S. aureus. The format is cell-based. As to conditions: ATCC29213, 5 × 10^5 CFU/mL, 16 h at 37 °C, read-out: MIC, Gram-positive bacteria, S. aureus. The method, then: as §1, §2
Series [7] concerns Pseudomonas aeruginosa ATCC 27853. The series is described as follows: In vitro MIC, broth microdilution, P. aeruginosa. As to conditions: ATCC27853, 5 × 10^5 CFU/mL, 16 h at 37 °C, read-out: MIC, Gram-negative bacteria, P. aeruginosa. The format is cell-based. The protocol: as §1, §2

≈ marks a conversion by molar mass, not a printed value.

`CC1(C)Cc2c(ccc3ccccc23)C(NNC(=O)c2cccc(N)c2)=N1` [ZINC00729256]: the MIC in series [1] was 16 µg/mL (≈ 44.6 µM); in series [2], 16 µg/mL (≈ 44.6 µM); in series [3], 32 µg/mL (≈ 89.3 µM); in series [6] it was 8 µg/mL (≈ 22.3 µM); in series [7], 4 µg/mL (≈ 11.2 µM). In series [4], this molecule showed an IC50 at 48 h above 20 µM. In addition, the “Cytotoxicity to HEK293 cells (in words)” value in series [5] was “non-cytotoxicity”.
`Cc1ccc2ccc([C@H](Nc3ccccn3)c3ccc(C)c(C)c3)c(O)c2n1` [ZINC02086896]: the MIC in series [1] worked out at 64 µg/mL (≈ 173 µM); in series [2] it was 64 µg/mL (≈ 173 µM); in series [3], 32 µg/mL (≈ 86.6 µM); in series [6] it was 32 µg/mL (≈ 86.6 µM); in series [7], 16 µg/mL (≈ 43.3 µM). The molecule also came in with a half-inhibitory concentration (IC50) at 48 h in series [4] of 3.15 µM.
In the case of `CNC(=O)NC(=O)CSc1nc2sc(-c3ccccc3)cc2c(=O)n1N` [ZINC02181060], the MIC in series [1] amounted to 16 µg/mL (≈ 41.1 µM); in series [2], 32 µg/mL (≈ 82.2 µM); in series [3], 8 µg/mL (≈ 20.5 µM); in series [6], 4 µg/mL (≈ 10.3 µM); in series [7] it was 16 µg/mL (≈ 41.1 µM). This molecule also returned an IC50 at 48 h in series [4] of 15.4 µM.
`CCCC[n+]1c(N)c(C(=O)NCc2ccc(C)cc2)cc2c(=O)n3cccc(C)c3nc21` [ZINC02424508]: the minimal inhibitory concentration (MIC) in series [1] stood at 32 µg/mL; in series [2] it was 64 µg/mL; in series [3] it was 16 µg/mL; in series [6], 16 µg/mL; in series [7], 64 µg/mL. For the same molecule, the half-maximal inhibitory concentration (IC50) at 48 h in series [4] is above 20 µM.
Turning to `Cc1sc(NC(=O)c2ccco2)c(C(Nc2ccccn2)c2ccccc2)c1C` (centres unmarked) [ZINC02709613], the MIC was 64 µg/mL (≈ 159 µM) in series [1]; 64 µg/mL (≈ 159 µM) in series [2]; 64 µg/mL (≈ 159 µM) in series [3]; 64 µg/mL (≈ 159 µM) in series [6]; 16 µg/mL (≈ 39.7 µM) in series [7]. The molecule also came in with an IC50 at 48 h in series [4] above 20 µM.
In the case of `COc1ccc(C(=O)N2CCN(CCNC(=O)C(=O)Nc3ccccc3)CC2)cc1` [ZINC04380079], the MIC in series [1] was 64 µg/mL (≈ 156 µM); in series [2], 64 µg/mL (≈ 156 µM); in series [3], 64 µg/mL (≈ 156 µM); in series [6], 32 µg/mL (≈ 78 µM); in series [7] it was 64 µg/mL (≈ 156 µM). In series [4], this molecule showed an IC50 at 48 h of 6.84 µM.
As to `CCc1ccc(NC(=O)C(=O)NCCN2CCN(C(=O)c3ccc(Cl)cc3Cl)CC2)cc1` [ZINC06843697], the MIC stood at 4 µg/mL (≈ 8.38 µM) in series [1]; 64 µg/mL (≈ 134 µM) in series [2]; 16 µg/mL (≈ 33.5 µM) in series [3]; 4 µg/mL (≈ 8.38 µM) in series [6]; 8 µg/mL (≈ 16.8 µM) in series [7]. The molecule further gave an IC50 at 48 h in series [4] above 20 µM. The “Cytotoxicity to HEK293 cells (in words)” value in series [5] was “non-cytotoxicity”.
With `CCCCCCCC[n+]1cccc(C(=O)N2CCNc3nc(NC(=O)C(C)C)[nH]c(=O)c32)c1` [ZINC08384332], the MIC in series [1] was 32 µg/mL; in series [2], 64 µg/mL; in series [3], 32 µg/mL; in series [6], 32 µg/mL; in series [7] it was 16 µg/mL. The molecule further returned an IC50 at 48 h in series [4] above 20 µM.
`Cc1ccc2c(c1)c1c3n2CCN(CC(=O)CNNC(=O)c2ccccc2)C3CCC1` (centres unmarked) [ZINC08430843]: the MIC in series [1] worked out at 32 µg/mL (≈ 76.8 µM); in series [2] it was 64 µg/mL (≈ 154 µM); in series [3], 64 µg/mL (≈ 154 µM); in series [6], 16 µg/mL (≈ 38.4 µM); in series [7], 32 µg/mL (≈ 76.8 µM). The IC50 at 48 h in series [4] was above 20 µM.
Consider `O=C(NCCN1CCN(C(=O)c2ccc(Cl)cc2Cl)CC1)C(=O)Nc1ccc(Br)cc1` [ZINC08451958], for which the minimal inhibitory concentration (MIC) in series [1] is 32 µg/mL (≈ 60.6 µM); in series [2], 64 µg/mL (≈ 121 µM); in series [3], 64 µg/mL (≈ 121 µM); in series [6] it was 32 µg/mL (≈ 60.6 µM); in series [7], 64 µg/mL (≈ 121 µM). The same molecule registered a concentration for half-maximal inhibition (IC50) at 48 h in series [4] above 20 µM.
Regarding `Cc1ccccc1C(=O)N1CCN(CCNC(=O)C(=O)Nc2ccc(Br)cc2)CC1` [ZINC08452043], the MIC in series [1] stood at 16 µg/mL (≈ 33.8 µM); in series [2], 32 µg/mL (≈ 67.6 µM); in series [3], 16 µg/mL (≈ 33.8 µM); in series [6], 8 µg/mL (≈ 16.9 µM); in series [7] it was 8 µg/mL (≈ 16.9 µM). The same molecule came in with an IC50 at 48 h in series [4] of 10.2 µM.
As for `CN(C)CCCNC(=O)c1ccccc1NC(=O)c1ccc(-c2ccccc2)cc1` [ZINC10312776], the MIC in series [1] is 64 µg/mL (≈ 159 µM); in series [2] it was 32 µg/mL (≈ 79.7 µM); in series [3], 64 µg/mL (≈ 159 µM); in series [6], 64 µg/mL (≈ 159 µM); in series [7], 16 µg/mL (≈ 39.8 µM). In series [4], this molecule gave an IC50 at 48 h above 20 µM.
Take `CC1CCCc2sc3nc(SCC(=O)NC(=O)Nc4ccccc4)n(N)c(=O)c3c21` (centres unmarked) [ZINC19797059]: the MIC is 32 µg/mL (≈ 72.1 µM) in series [1]; 64 µg/mL (≈ 144 µM) in series [2]; 64 µg/mL (≈ 144 µM) in series [3]; 32 µg/mL (≈ 72.1 µM) in series [6]; 64 µg/mL (≈ 144 µM) in series [7]. This molecule showed an IC50 at 48 h in series [4] above 20 µM.
For `CC1CCCc2sc3c(=O)n(N)c(SCC(=O)NC(=O)Nc4ccccc4)nc3c21` (centres unmarked) [ZINC19797060], the MIC is 64 µg/mL (≈ 144 µM) in series [1]; 64 µg/mL (≈ 144 µM) in series [2]; 64 µg/mL (≈ 144 µM) in series [3]; 32 µg/mL (≈ 72.1 µM) in series [6]; 16 µg/mL (≈ 36.1 µM) in series [7]. Besides, in series [4], the IC50 at 48 h is above 20 µM.
In the case of `COc1cc(CNCCc2ccc(S(N)(=O)=O)cc2)ccc1OCC(=O)NC(C)(C)C` [ZINC19922703], the MIC worked out at 64 µg/mL (≈ 142 µM) in series [1]; 64 µg/mL (≈ 142 µM) in series [2]; 64 µg/mL (≈ 142 µM) in series [3]; 32 µg/mL (≈ 71.2 µM) in series [6]; 32 µg/mL (≈ 71.2 µM) in series [7]. Further, in series [4], the IC50 at 48 h is above 20 µM.
